Data published in the NIST ThermoML archive (doi:10.1021/je030222n).
Numbers after ± are expanded uncertainties.

Settings: Liquid

CCCCN=C=O [butyl isocyanate]
Settings	vapor or sublimation pressure [kPa]
294.15 K	2.48 ± 0.41
323.24 K	9.52 ± 0.74
338.02 K	17.88 ± 1.2
353.02 K	32.1 ± 1.9
362.65 K	44.82 ± 2.6
372.6 K	61.84 ± 3.5
387.87 K	99.08 ± 5.3

CCCCO [butan-1-ol]
Closed cell (Static) method
Settings	vapor or sublimation pressure [kPa]
314.19 K	2.7 ± 0.41
323.2 K	4.49 ± 0.43
338.21 K	10.38 ± 0.45
342.17 K	12.89 ± 0.55
352.81 K	21.44 ± 0.63
361.24 K	31.52 ± 0.84
371.94 K	49.26 ± 0.92

CCOC(N)=O [ethyl carbamate]
Closed cell (Static) method
Settings	vapor or sublimation pressure [kPa]
322.6 K	0.88 ± 0.2
337.2 K	1.287 ± 0.2
342.3 K	1.494 ± 0.2
352.5 K	1.957 ± 0.2
362.6 K	2.381 ± 0.2
371.7 K	2.953 ± 0.2

CCCCCCCCC [nonane]
Closed cell (Static) method
Settings	vapor or sublimation pressure [kPa]
322.59 K	2.34 ± 0.22
338.33 K	4.99 ± 0.23
351.53 K	9 ± 0.3
371.37 K	19.81 ± 0.34
